In patent US6416783B1, “Aspartic and malic acid inhibition of ss-glucuronidase” (Wisconsin Alumni Research Foundation, priority 1999, dated 2002):
“And” between values parts separate entries of the source, which are not always exact repeats. Identical values can stand only once. Like-named read-outs stand apart in the source and are kept apart here. Each block holds one molecule with its values, some of them ahead of it.

How the values were obtained:
[1] = target: T1, β-glucuronidase (Homo sapiens, UniProt P08236); assay: Standard Test: β-glucuronidase activity of human breast milk with MUG substrate (fluorescence); assay type: biochemical; settings: for remaining activity at 100 µM / remaining activity at 1000 µM / remaining activity at 10000 µM / β-glucuronidase activity, % (of control) / X (mean activity) / β-glucuronidase activity (row unlabelled): Example 4; for β-glucuronidase activity, % (of control): 0.1, 1, 10 mM; for X (mean activity) / mean (X̄) activity: mean of 3; for X (mean activity) / β-glucuronidase activity (row unlabelled): in pmol/tube/h; for β-glucuronidase activity (row unlabelled) / Activity (pmole/tube/hr): single replicates
T1 construct: We used human breast milk collected and pooled from a newborn nursery as the β-glucuronidase source; from tissue
T1 sequence (P08236 23-651): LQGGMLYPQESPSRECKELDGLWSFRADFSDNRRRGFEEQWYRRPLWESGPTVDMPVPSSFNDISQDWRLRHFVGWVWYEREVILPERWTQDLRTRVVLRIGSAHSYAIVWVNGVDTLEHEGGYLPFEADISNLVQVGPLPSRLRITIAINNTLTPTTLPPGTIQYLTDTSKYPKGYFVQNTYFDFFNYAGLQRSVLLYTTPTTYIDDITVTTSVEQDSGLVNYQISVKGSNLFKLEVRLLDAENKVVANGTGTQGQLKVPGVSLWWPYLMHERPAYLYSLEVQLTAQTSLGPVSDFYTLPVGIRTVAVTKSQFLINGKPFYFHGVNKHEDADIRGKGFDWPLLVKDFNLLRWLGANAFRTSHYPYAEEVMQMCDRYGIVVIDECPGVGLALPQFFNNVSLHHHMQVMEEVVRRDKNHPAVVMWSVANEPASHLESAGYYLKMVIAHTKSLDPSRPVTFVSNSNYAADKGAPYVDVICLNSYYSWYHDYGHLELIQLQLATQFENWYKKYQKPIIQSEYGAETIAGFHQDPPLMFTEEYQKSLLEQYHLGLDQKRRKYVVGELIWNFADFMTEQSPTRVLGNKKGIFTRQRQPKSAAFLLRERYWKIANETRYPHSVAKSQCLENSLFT
Protocol: We first developed a standard assay procedure (the “Standard Test”). We used human breast milk collected and pooled from a newborn nursery as the β-glucuronidase source. The samples were stored at −20° C. The milk was thawed and diluted 10× with 0.2 M sodium acetate/glacial acetic acid (NaAC) buffer pH 4.5 just prior to being used. A 4.0 mM stock solution of 4-methylumbelliferyl β-D-glucuronide (MUG, Sigma M-9130 lot#75H3777) was prepared in 0.2 M NaAC buffer pH 4.5.
Triplicate test and blank tubes contained a reaction mixture consisting of 50 μL diluted breast milk and 50 μL of an inhibitor solution diluted with 0.2 M NaAC buffer pH 4.5. Controls were prepared that contained only 50 μL diluted breast milk and 50 μL 0.2 M NaAC buffer pH 4.5. The assay was started by adding 25 μl of the MUG (4.0 mM, 0.800 mM final concentration) to the test sample to start the reaction. The final volume of the reaction was 125 μL. Both blank and test samples were vortexed and incubated at 37° C. for 1 hour (or for shorter times if indicated).
The reaction was quenched in both the test and blank samples with 3.0 ml of glycine-carbonate (320 mM: 200 mM) buffer pH 10.0. The blank samples had 25 μl of the MUG (4.0 mM, 0.800 mM final) added to them and all tubes were vortexed.
The resulting fluorescence was read using a Perkin Elmer LS5-B fluorescence spectrophotometer (360 nm excitation, 445 nm emission, autorange scale). The amount of 4-methylumbelliferone (4-MU) released by the β-glucuronidase was calculated using a 4-MU quadratic standard curve and the Mathplot software. The velocity was calculated as pmoles of 4-MU formed per hour per ml undiluted breast milk.
We diluted pooled breast milk 20× with 0.2 M NaAC buffer pH 4.5. We diluted 2.2% w/v solution of Amicase (Sigma Cat. #A2427—a mixture of free amino acids with virtually no unhydrolyzed peptides, only minimal inorganic components are present, total nitrogen ˜12.8%, amino nitrogen ˜9.8%) with buffer 5×. We then incubated 50 μl milk with 50 μl buffer and Amicase. We then added 25 μl MUG to start the reaction. We then quenched with Na-carbonate buffer pH 10.0 and read fluorescence at 360 nm ex 445 nm em. Autorange scale. The mixture of amino acids was compared to controls and Nutramigen® as follows:
We then studied the effect of specific amino acid mixtures on β-glucuronidase activity. We diluted pooled breast milk 10× with 0.2 M NaAC buffer pH 4.5 and diluted 50×stock essential amino acid solution (Sigma Cat #M7020=L-arginine.HCl 6.32 g/L, L-cystine 1.2 g/L, L-histidine.HCl.H20 2.1 g/L, L-isoleucine 2.625 g/L, L-leucine 2.62 g/L, L-lyscine.HCl 3.625 g/L, L-methionine 0.755 g/L, L-phenylalanine 1.65 g/L, L-threonine 2.38 g/L, L-tryptophane 0.51 g/L, L-tyrosine 1.8 g/L, L-valine 2.34 g/L).
We also used a non-essential AA solution=Sigma Cat #M7145=L-alanine HCl 0.89 g/L, L-asparagine.H20 1.50 g/L, L-aspartic acid 1.33 g/L, L-glutamic acid 1.47 g/L, glycine 0.75 g/L, L-proline 1.15 g/L, L-serine 1.05 g/L.
We 5×diluted 100×stock essential AA solution. We incubated 50 μl diluted milk with 50 μl buffer (control), or the essential AA solution, or the non-essential AA solution, or Nutramigen® RTU, added 25 μl MUG to start the reaction, quenched with Na-carbonate buffer, and read fluorescence (360 nm excitation: 445 nm emission). The results are as follows:
We then analyzed inhibitory effect of each of the seven amino acids in the non-essential amino acid mixture. We diluted pooled breast milk 10× with 0.2 M NaAC buffer pH 4.5, and diluted Nutramigen® RTU (N) and Nutramigen® lipid-free supernatant (LFS) 5 fold with 0.2 M NaAC buffer pH 4.5.
We prepared stock solutions of each of the non-essential amino acids L-alanine (Ala), L-asparagine (Asn), L-aspartic acid (Asp), L-glutamic acid (Glu), glycine (Gly), L-proline (Pro), and L-Serine (Ser). All solutions were at pH 4.5. The final concentration of each amino acid in the assay was the same as when the amino acids were analyzed as a mixture. […]

[2] = cited from earlier work
[3] = 0.1 mM, read-out: % (activity relative to control)
[4] = 1 mM, read-out: % (activity relative to control)
[5] = 10 mM, read-out: % (activity relative to control)

SMILES: CC(=O)N[C@H]1C(O)O[C@H](CO)[C@H](O)[C@@H]1O (stereo partly drawn) [NAG, N-acetyl-D-galactosamine]
remaining activity at 100 µM [1, 3]: 98.4% | remaining activity at 1000 µM [1, 4]: 99.3% | remaining activity at 10000 µM [1, 5]: 100% | β-glucuronidase activity, % (of control) [1]: 98-100% | X (mean activity) ([1]; 0.1 mM): 814.1 | X (mean activity) ([1]; 1 mM): 821.6 | X (mean activity) ([1]; 10 mM): 827.9 | β-glucuronidase activity (row unlabelled) ([1]; 0.1 mM): 811.8 and 817.0 and 813.4 | β-glucuronidase activity (row unlabelled) ([1]; 1 mM): 805.6 and 850.0 and 809.3 | β-glucuronidase activity (row unlabelled) ([1]; 10 mM): 835.1 and 824.1 and 824.3

SMILES: N[C@@H](CC(=O)O)C(=O)O [aspartic acid]
serum bilirubin level ([2]; a premature infant with neonatal hyperbilirubinemia, Kohno et al. 1963): lowered | effect on serum bilirubin concentrations ([2]; double-blind, pre-term formula-fed infants, given each of the first six days of life, Gray et al. 1971): no effect | serum bilirubin level ([2]; some cases of hyperbilirubinemia, Saito et al. 1964): decreased

Further lines, with some results ahead:

remaining activity at 100 µM [1, 3]: 99.3% | remaining activity at 1000 µM [1, 4]: 99.2% | remaining activity at 10000 µM [1, 5]: 110% | β-glucuronidase activity, % (of control) [1]: 99-100% | X (mean activity) ([1]; 0.1 mM): 821.9 | X (mean activity) ([1]; 1 mM): 820.5 | X (mean activity) ([1]; 10 mM): 905.7 | β-glucuronidase activity (row unlabelled) ([1]; 0.1 mM): 806.4 and 848.2 and 810.9 | β-glucuronidase activity (row unlabelled) ([1]; 1 mM): 829.9 and 827.6 and 803.9 | β-glucuronidase activity (row unlabelled) ([1]; 10 mM): 897.8 and 912.1 and 907.2
SMILES: CC(=O)N[C@H]1[C@H]([C@H](O)[C@H](O)CO)OC(O)(C(=O)O)C[C@@H]1O (some centres unmarked) [NAN, N-acetylneuraminic acid]

remaining activity at 46 µg/mL ([1]; Example 3, 46.0 μg/ml, read-out: % (activity relative to control)): 99.3% | mean (X̄) activity ([1]; Example 3, 46.0 μg/ml): 669.6 pmole/tube/hr
SMILES: O=C(O)[C@@H]1CCCN1 [Pro, L-proline]
Activity (pmole/tube/hr) ([1]; Example 3, 46.0 μg/ml): 666.1 pmole/tube/hr and 679.7 pmole/tube/hr and 662.9 pmole/tube/hr

remaining activity at 42.2 µg/mL ([1]; Example 3, 42.2 μg/ml, read-out: % (activity relative to control)): 99.3% | mean (X̄) activity ([1]; Example 3, 42.2 μg/ml): 669.2 pmole/tube/hr
SMILES: N[C@@H](CO)C(=O)O [Ser, L-Serine]
Activity (pmole/tube/hr) ([1]; Example 3, 42.2 μg/ml): 677.7 pmole/tube/hr and 670.6 pmole/tube/hr and 659.2 pmole/tube/hr
